Laboratory results from DBAASP.
In brackets after ≈: the same amount, converted by molar mass.

How the values were obtained:
Experiment in all cases: ≥ marks a high value that may be exact or a test limit, other limits are often not marked, values filed in µg/mL are converted to µM
[1] = tested on: Bacillus licheniformis X39
[2] = tested on: Escherichia coli ATCC 25922
[3] = tested on: Rhodococcus rhodochrous X15
[4] = tested on: Acinetobacter baumannii 97830
[5] = tested on: Acinetobacter baumannii 9931
[6] = tested on: Acinetobacter baumannii ATCC 19606
[7] = tested on: Bacillus subtilis ATCC 23857
Escherichia coli 780 = tested on: Escherichia coli 780
Escherichia coli 804 = tested on: Escherichia coli 804
[8] = tested on: Klebsiella pneumoniae ATCC 700603
[9] = tested on: Pseudomonas aeruginosa 50
[10] = tested on: Pseudomonas aeruginosa 73
[11] = tested on: Pseudomonas aeruginosa ATCC 27853
[12] = tested on: Pseudomonas aeruginosa ATCC 9027
[13] = tested on: Staphylococcus aureus 113
Staphylococcus aureus 75 = tested on: Staphylococcus aureus 75
[14] = tested on: Staphylococcus aureus ATCC 29213
[15] = tested on: Staphylococcus epidermidis ATCC 12228
[16] = tested on: Enterobacter cloacae 218R
[17] = tested on: Enterococcus faecalis ATCC 29212
[18] = tested on: Enterococcus faecalis W61950
[19] = tested on: Enterococcus faecalis f43559
[20] = tested on: Enterococcus faecium mic80
[21] = tested on: Enterococcus faecium t62764
[22] = tested on: Escherichia coli ESBL 63103
[23] = tested on: Escherichia coli ESBL 64771
[24] = tested on: Klebsiella pneumoniae ESBL 61962
[25] = tested on: Klebsiella pneumoniae ESBL 63575
[26] = tested on: Pseudomonas aeruginosa 198
[27] = tested on: Pseudomonas aeruginosa 213
Pseudomonas aeruginosa 9 = tested on: Pseudomonas aeruginosa 9
[28] = tested on: Pseudomonas aeruginosa H1027
[29] = tested on: Pseudomonas aeruginosa H1030
[30] = tested on: Pseudomonas aeruginosa LES400
[31] = tested on: Pseudomonas aeruginosa PAO1 H103
[32] = tested on: Staphylococcus aureus ATCC 25923
[33] = tested on: Staphylococcus aureus C623
[34] = tested on: Stenotrophomonas maltophilia ATCC 13637

MIC [4]	MIC [5]	MIC [6]	MIC [7]	MIC (Escherichia coli 780)	MIC (Escherichia coli 804)	MIC [8]	MIC [9]	MIC [10]	MIC [11]	MIC [12]	MIC [13]	MIC (Staphylococcus aureus 75)	MIC [14]	MIC [15]	MIC [16]	MIC [17]	MIC [18]	MIC [19]	MIC [20]	Compound	other results
4 µM (≈ 5.83 µg/mL)	8 µM (≈ 11.7 µg/mL)	16 µM (≈ 23.3 µg/mL)	4 µM (≈ 5.83 µg/mL)	4 µM (≈ 5.83 µg/mL)	16 µM (≈ 23.3 µg/mL)	8 µM (≈ 11.7 µg/mL)	≥ 32 µM	≥ 32 µM	32 µM (≈ 46.7 µg/mL)	32 µM (≈ 46.7 µg/mL)	4 µM (≈ 5.83 µg/mL)	4 µM (≈ 5.83 µg/mL)	4 µM (≈ 5.83 µg/mL)	4 µM (≈ 5.83 µg/mL)						CC(C)[C@H](N)C(=O)N[C@@H](Cc1c[nH]c2ccccc12)C(=O)N[C@@H](CCCN=C(N)N)C(=O)N[C@@H](Cc1c[nH]c2ccccc12)C(=O)N[C@@H](Cc1c[nH]c2ccccc12)C(=O)N[C@@H](Cc1c[nH]c2ccccc12)C(=O)N[C@@H](CCCN=C(N)N)C(=O)N[C@@H](Cc1c[nH]c2ccccc12)C(=O)N[C@H](C(N)=O)C(C)C [VWRWWWRWV]	
															11 µM (≈ 16 µg/mL)	43.2 µM (≈ 63 µg/mL)	≥ 87 µM	≥ 87 µM	5.62 µM (≈ 8.2 µg/mL)	NCCCC[C@H](NC(=O)[C@H](Cc1c[nH]c2ccccc12)NC(=O)[C@H](Cc1c[nH]c2ccccc12)NC(=O)[C@H](CCCCN)NC(=O)[C@H](CCCCN)NC(=O)[C@@H](N)Cc1c[nH]c2ccccc12)C(=O)N[C@@H](CCCN=C(N)N)C(=O)N[C@@H](CCCN=C(N)N)C(=O)N[C@@H](Cc1c[nH]c2ccccc12)C(=O)O [WKKWWKRRW]	MIC [21]: 2.74 µM (≈ 4 µg/mL); MIC [22]: 11 µM (≈ 16 µg/mL); MIC [23]: 1.37 µM (≈ 2 µg/mL); MIC [24]: ≥ 87 µM; MIC [25]: 21.2 µM (≈ 31 µg/mL); MIC [26]: 21.2 µM (≈ 31 µg/mL); MIC [27]: ≥ 43.2 µM; MIC (Pseudomonas aeruginosa 9): 21.2 µM (≈ 31 µg/mL); MIC [28]: 2.74 µM (≈ 4 µg/mL); MIC [29]: 21.2 µM (≈ 31 µg/mL); MIC [30]: 21.2 µM (≈ 31 µg/mL); MIC [31]: 11 µM (≈ 16 µg/mL); MIC [32]: 0.685 µM (≈ 1 µg/mL); MIC [33]: 1.37 µM (≈ 2 µg/mL); MIC [34]: 0.685 µM (≈ 1 µg/mL)

Continued, molecule first:

Compound	MIC [4]	MIC [5]	MIC [6]	MIC [7]	MIC (Escherichia coli 780)	MIC (Escherichia coli 804)	MIC [8]	MIC [9]	MIC [10]	MIC [11]	MIC [12]	MIC [13]	MIC (Staphylococcus aureus 75)	MIC [14]	MIC [15]	MIC [16]	MIC [17]	MIC [18]	MIC [19]	MIC [20]	other results
CC[C@H](C)[C@@H]1NC(=O)[C@H](CCCCN)NC(=O)[C@@H](NC(=O)[C@H](Cc2ccccc2)NC(=O)[C@H](CC(C)C)NC(=O)[C@@H](NC(=O)[C@@H]2CCCN2C(=O)[C@@H](NC(=O)[C@@H](NC(=O)[C@H](CC(N)=O)NC(=O)[C@H](C)NC(=O)[C@H](C)NC(=O)[C@@H](NC(=O)[C@H](CCCCN)NC(=O)[C@H](CC(C)C)NC(=O)[C@H](C)NC(=O)[C@@H](NC(=O)[C@H](CO)NC(=O)[C@H](CC(C)C)NC(=O)[C@@H](N)Cc2ccccc2)[C@@H](C)O)C(C)C)C(C)C)C(C)C)[C@@H](C)O)CSSC[C@@H](C(=O)O)NC(=O)[C@H](CCCCN)NC(=O)[C@H](CCCCN)NC(=O)[C@H]([C@@H](C)O)NC1=O [FLSTALKVAANVVPTLFCKITKKC]																					MIC [1]: ≥ 75 µM; MIC [2]: 150 µM (≈ 389 µg/mL); MIC [3]: 9 µM (≈ 23.3 µg/mL)
CC[C@H](C)[C@H](N)C(=O)N[C@@H](Cc1c[nH]c2ccccc12)C(=O)N[C@@H](CCCN=C(N)N)C(=O)N[C@@H](Cc1c[nH]c2ccccc12)C(=O)N[C@@H](Cc1c[nH]c2ccccc12)C(=O)N[C@@H](Cc1c[nH]c2ccccc12)C(=O)N[C@@H](CCCN=C(N)N)C(=O)N[C@@H](Cc1c[nH]c2ccccc12)C(=O)N[C@H](C(N)=O)[C@@H](C)CC [IWRWWWRWI]	8 µM (≈ 11.9 µg/mL)	8 µM (≈ 11.9 µg/mL)	32 µM (≈ 47.6 µg/mL)	4 µM (≈ 5.95 µg/mL)	16 µM (≈ 23.8 µg/mL)	8 µM (≈ 11.9 µg/mL)	8 µM (≈ 11.9 µg/mL)	16 µM (≈ 23.8 µg/mL)	≥ 32 µM	32 µM (≈ 47.6 µg/mL)	32 µM (≈ 47.6 µg/mL)	4 µM (≈ 5.95 µg/mL)	8 µM (≈ 11.9 µg/mL)	4 µM (≈ 5.95 µg/mL)	4 µM (≈ 5.95 µg/mL)						
CC[C@H](C)[C@H](NC(=O)[C@H](Cc1c[nH]c2ccccc12)NC(=O)[C@H](Cc1c[nH]c2ccccc12)NC(=O)[C@H](CCCCN)NC(=O)[C@H](CC(C)C)NC(=O)[C@H](CCCN=C(N)N)NC(=O)[C@H](CCCCN)NC(=O)[C@@H](N)CCCN=C(N)N)C(=O)N[C@@H](Cc1ccc(O)cc1)C(=O)O [RKRLKWWIY]																7.12 µM (≈ 9.6 µg/mL)	27.4 µM (≈ 37 µg/mL)	≥ 110 µM	≥ 110 µM	7.12 µM (≈ 9.6 µg/mL)	MIC [21]: 1.78 µM (≈ 2.4 µg/mL); MIC [22]: 3.48 µM (≈ 4.7 µg/mL); MIC [23]: 3.48 µM (≈ 4.7 µg/mL); MIC [24]: ≥ 110 µM; MIC [25]: 27.4 µM (≈ 37 µg/mL); MIC [26]: 27.4 µM (≈ 37 µg/mL); MIC [27]: 27.4 µM (≈ 37 µg/mL); MIC (Pseudomonas aeruginosa 9): 27.4 µM (≈ 37 µg/mL); MIC [28]: 3.48 µM (≈ 4.7 µg/mL); MIC [29]: 27.4 µM (≈ 37 µg/mL); MIC [30]: 27.4 µM (≈ 37 µg/mL); MIC [31]: 13.3 µM (≈ 18 µg/mL); MIC [32]: 3.48 µM (≈ 4.7 µg/mL); MIC [33]: 3.48 µM (≈ 4.7 µg/mL); MIC [34]: 1.78 µM (≈ 2.4 µg/mL)
CC(C)[C@H](N)C(=O)N[C@@H](CCCN=C(N)N)C(=O)N[C@@H](CCCN=C(N)N)C(=O)N[C@@H](Cc1c[nH]c2ccccc12)C(=O)N[C@@H](Cc1c[nH]c2ccccc12)C(=O)N[C@@H](Cc1c[nH]c2ccccc12)C(=O)N[C@@H](CCCN=C(N)N)C(=O)N[C@@H](CCCN=C(N)N)C(=O)N[C@H](C(N)=O)C(C)C [VRRWWWRRV]	≥ 64 µM	≥ 32 µM	128 µM (≈ 179 µg/mL)	4 µM (≈ 5.59 µg/mL)	≥ 64 µM	≥ 64 µM	64 µM (≈ 89.5 µg/mL)	≥ 128 µM	≥ 128 µM	32 µM (≈ 44.8 µg/mL)	32 µM (≈ 44.8 µg/mL)	16 µM (≈ 22.4 µg/mL)	8 µM (≈ 11.2 µg/mL)	8 µM (≈ 11.2 µg/mL)	4 µM (≈ 5.59 µg/mL)						
